In ChEMBL document CHEMBL1148354, “Dye-labeled benzodiazepines: development of small ligands for receptor binding studies using fluorescence correlation spectroscopy” (J Med Chem, 2004):
“And” between values parts separate entries of the source, which are not always exact repeats. Equal entries are not always repeated.

Experiments:
[1] = molecular target: T1, GABA-A receptor; anion channel (Rattus norvegicus) (UniProt O09028+P15431+P18506+P18508+P19969+P20236+P23574+P23576+P28471+P28473+P30191+P62813+P63079+P63138+Q91ZM7+Q9ES14); assay: Non-specific binding to GABA-A benzodiazepine receptor of rat hippocampal neurons after co-incubation with 1 uM midazolam (range is 7-10%); type: tissue-based; conditions: Hippocampus
[2] = molecular target: T1, GABA-A receptor; anion channel (Rattus norvegicus); assay: Percent binding to GABA-A benzodiazepine receptor of rat hippocampal neurons at 2 nM; type: tissue-based; conditions: Hippocampus
[3] = molecular target: T1, GABA-A receptor; anion channel (Rattus norvegicus); assay: Saturation binding for benzodiazepine receptor of rat hippocampal neurons; type: tissue-based; conditions: Hippocampus
[4] = molecular target: GABA-A receptor; anion channel; assay: Binding affinity for GABA-A benzodiazepine receptor of rat hippocampal neurons; type: tissue-based, Hippocampus

- Binding [1]: 10%
- Binding [2]: 90%
- Concentration [3]: 120 nM
- Kd [4]: 0.0972 µM and 0.0099 µM
Compound: CC1N=c2c(cc3c(c2S(=O)(=O)O)Oc2c(cc4c(c2S(=O)(=O)O)NC(C)C4(C)C)C=3c2ccc(C(=O)NCCN3C(=O)CN=C(c4ccccc4F)c4cc(Cl)ccc43)cc2)C1(C)C (centres undefined)
